Data on 17 compounds can be found in patent publication US20240277738A1, “GAMETOCYTOCIDAL COMPOUND” (Eberhard Karls Universität Tübingen Medizinische Fakultãt, priority 2021, published 2024).

Assay [1] concerns Plasmodium falciparum strain 3D7. The assay is described as follows: Growth inhibition assay with asexual Plasmodium falciparum (HRP2 ELISA). Type of assay: cell-based. The settings on record: for Fold differences, 3 day-assays: IC50 3D7 versus A1-H.1, 3 days; for Fold differences, 6 day-assays: IC50 3D7 versus A1-H.1, 6 days. Background: ELISA stands for enzyme-linked immunosorbent assay.

The subject of the next assay is HepG2 cells. The assay is described as follows: Cytotoxicity, neutral red assay. It counts as cell-based, human. Conditions: for IC50: read-out: IC50 (μM) in HepG2 cells; for SI 3D7: selectivity index HepG2 versus P. falciparum 3D7; for SI A1-H.1: selectivity index HepG2 versus P. knowlesi A1-H.1.
Assay [2] deals with Plasmodium falciparum Dd2 (multidrug-resistant). The assay is described as follows: Growth inhibition assay, resistant strain Dd2. It counts as cell-based. Conditions: read-out: IC50, Dd2.
Assay [3] concerns Plasmodium falciparum K1 (multidrug-resistant). The assay is described as follows: Growth inhibition assay, resistant strain K1. Type of assay: cell-based. Conditions: read-out: IC50, K1.
The test system of assay [4] is Plasmodium falciparum 7G8 (chloroquine resistant). Briefly: Growth inhibition assay, resistant strain 7G8. Type of assay: cell-based. The settings on record: read-out: IC50, 7G8.
Assay [5] has as its system mature (stage IV-V) Plasmodium falciparum gametocytes (NF54). The assay is described as follows: In vitro activity against mature gametocytes (ATP production, BacTiterGlo). Type of assay: cell-based. The settings on record: 48 h.
Assay [6] has as its system Plasmodium falciparum strain 3D7. The assay is described as follows: Apicoplast as target: growth inhibition with and without IPP supplementation. It counts as cell-based. The settings on record: 3D7, 6 days.
Assay [7] has the same test system. The assay is described as follows: Ionophoric activity assay: growth inhibition with KCl or MgCl2 supplementation. Type of assay: cell-based.
A further assay has as its system Mycobacterium bovis. The settings on record: cited from earlier work.
Assay [8] relates to Plasmodium falciparum 3D7 and Dd2 asexual stages. The assay is described as follows: Thin blood smear microscopy (Giemsa). Conditions: 1 nM for 6 h.
Method: Then, thin blood smears were prepared, fixed in 100% methanol for 10 seconds, and stained with Giemsa (Merck) solution (5%) for 20 minutes. The slides were washed and observed under a Leica DMBL microscope, and pictures were taken using a ProgRes C10 camera and software (Jenoptik), at 100× magnification.
Where [9] appears, read: Plasmodium falciparum, 3D7, 72 h, read-out: IC50, 3 day-assays, 3D7.
[10] abbreviates: Plasmodium falciparum, 3D7, 144 h, read-out: IC50, 6 day-assays, 3D7.
Where [11] appears, read: Plasmodium falciparum, 72 h, P. falciparum 3D7, 3 days of incubation, read-out: IC50, 3 day-assays, 3D7.
The mark [12] stands for this setting: Plasmodium falciparum, 144 h, P. falciparum 3D7, 6 days of incubation, read-out: IC50, 6 day-assays, 3D7.
The mark [13] stands for this setting: Plasmodium falciparum, NF54, stage IV and V gametocytes.

Structures can show the parent of a compound that is named as a salt. Where two headings read alike, the source gives them in different places.

For the compound `CC(C)[C@@H](N)C(=O)O[C@H](C)[C@@H]1C/C=C\CC[C@H](O)C(C)(C)[C@@H]2CC[C@@H](C)[C@@]3(O2)O[B-]24O[C@@H](C(=O)O1)[C@]1(O[C@@H](CC[C@H]1C)C(C)(C)[C@H](O)CCC[C@@H]1C[C@H](OC(=O)[C@@H]3O2)[C@@H](C)O1)O4.[H+]` [Boromycin], the 50% inhibitory concentration (IC50) (commonly the concentration that inhibits the measured activity by half) was determined as 0.0009 ± 0.0001 µM in assay [1] (3D7, 3 days of incubation, comparator for resistant strains, read-out: IC50, 3D7 (Table 4)); 0.0009 ± 0.0001 µM in assay [1] (P. falciparum 3D7, 3 days of incubation, read-out: IC50, 3 day-assays, 3D7); 1250 ± 230 µM in the assay with HepG2 cells (HepG2, 24 hours drug incubation, neutral red); 0.0006 ± 0.0004 µM in assay [2] (Dd2, 3 days of incubation); 0.0007 ± 0.0001 µM in assay [3] (K1, 3 days of incubation); 0.0004 ± 7e-05 µM in [4] (7G8, 3 days of incubation). For the same compound, the half-inhibitory concentration (IC50) is 0.0085 ± 0.0036 µM in assay [5] (stage IV and V gametocytes); 0.0014 µM in assay [6] (supplemented with IPP, read-out: IC50, IPP-supplemented); 0.0009 µM in assay [6] (without IPP, read-out: IC50, control without IPP); 2.1 ± 0.2 nM in [7] (3D7, 3 days, KCl 220 μg/ml, read-out: IC50, KCl supplemented); 0.2 nM in [7] (3D7, 3 days, MgCl2 220 μg/ml, read-out: IC50, MgCl2 supplemented); 0.7 ± 0.1 nM in assay [7] (3D7, 3 days, no supplementation, read-out: IC50 (in nM) control). Besides, the “Fold differences, 3 day-assays” value in [1] is on record as 0.15. The “Fold differences, 6 day-assays” value in assay [1] was found to be 0.29. Besides, in the assay with HepG2 cells (HepG2 versus Plasmodium), the “selectivity index (SI)” value is on record as “higher than 200,000”. The “SI 3D7” value in the assay on HepG2 cells was 1,388,000. For the same compound, the “SI A1-H.1” value in the assay with HepG2 cells is on record as 211,864. The “increase of IC50 by supplementation of KCl” value in assay [7] (KCl at 220 μg/mL versus control) amounted to 3 fold. In the assay on Mycobacterium bovis (KCl 20 mg/mL), the “boromycin activity with external KCl” value is 10%. For the same compound, the “boromycin activity without added KCl” value in the assay with Mycobacterium bovis (before addition of KCl) is 50%. The “parasite morphology, strain 3D7” value in assay [8] (3D7) is listed as “pyknotic appearance”. Further, the “parasite morphology, strain Dd2” value in assay [8] (Dd2) is “pyknotic appearance”.

Regarding `CCN(CC)CCCC(C)Nc1ccnc2cc(Cl)ccc12` (centres unmarked) [Chloroquine, Chloroquine diphosphate], the “Fold differences, 3 day-assays” value in [1] was found to be 0.57. Also, in assay [1], the “Fold differences, 6 day-assays” value came to 0.61. Besides, the IC50 in [1] (Plasmodium falciparum, 3D7, 72 h, read-out: IC50, 3D7 (Table 4)) came to 0.0084 ± 0.0049 µM; in assay [1] (setting [9]), 0.0084 ± 0.0049 µM; in assay [1] (setting [10]) it was 0.0104 ± 0.0048 µM; in the assay with HepG2 cells (Homo sapiens, HepG2, 24 h), 153 µM; in [2] (Plasmodium falciparum, DD2, 72 h) it was 0.302 ± 0.119 µM; in assay [3] (Plasmodium falciparum, K1, 72 h) it was 0.401 ± 0.0283 µM. Also, the IC50 is 0.304 ± 0.0182 µM in assay [4] (Plasmodium falciparum, 7G8, 72 h); 12 ± 0.8 nM in assay [7] (Plasmodium falciparum, 3D7, 72 h, read-out: IC50 (in nM) control); 11.6 ± 1.4 nM in [7] (Plasmodium falciparum, 3D7, 72 h, read-out: IC50, KCl supplemented); 2.2 nM in assay [7] (Plasmodium falciparum, 3D7, 72 h, read-out: IC50, MgCl2 supplemented). In addition, the “SI 3D7” value in the assay with HepG2 cells is recorded as 18,214. For the same compound, the “SI A1-H.1” value in the assay on HepG2 cells was 10,551. Moreover, the “increase of IC50 by supplementation of KCl” value in assay [7] is on record as “no difference was observed”.

For the compound `CN(C)[C@@H]1C(O)=C(C(N)=O)C(=O)[C@@]2(O)C(O)=C3C(=O)c4c(O)ccc(Cl)c4[C@@](C)(O)[C@H]3C[C@@H]12` [Chlortetracycline], the IC50 in assay [1] (setting [11]) and in assay [1] (setting [12]) was > 18 µM in each case.

`CN(C)[C@@H]1C(O)=C(C(N)=O)C(=O)[C@@]2(O)C(O)=C3C(=O)c4c(O)ccc(Cl)c4[C@@H](O)[C@H]3C[C@@H]12` [Demeclocycline]: the “Fold differences, 6 day-assays” value in assay [1] came to 1.06. Moreover, the concentration for half-maximal inhibition (IC50) in [1] (setting [11]) is > 18 µM; in assay [1] (setting [12]), 0.41 ± 0.165 µM.

For `C[C@H]1c2cccc(O)c2C(=O)C2=C(O)[C@]3(O)C(=O)C(C(N)=O)=C(O)[C@@H](N(C)C)[C@@H]3[C@@H](O)[C@@H]21` [Doxycycline, Doxycycline Hyclate], in [1], the “Fold differences, 3 day-assays” value amounted to 5.1. For the same compound, the “Fold differences, 6 day-assays” value in assay [1] was found to be 0.58. The 50% inhibitory concentration (IC50) was 9.58 ± 2.76 µM in [1] (setting [11]) and 0.386 ± 0.292 µM in assay [1] (setting [12]).

With `CN(C)[C@@H]1C(O)=C(C(N)=O)C(=O)[C@@]2(O)C(O)=C3C(=O)c4c(O)c(NC(=O)CN5CCCC5)cc(F)c4C[C@H]3C[C@@H]12` [Eravacycline], in assay [1], the “Fold differences, 3 day-assays” value was 1.08 and the “Fold differences, 6 day-assays” value is 0.4. In addition, the concentration for half-maximal inhibition (IC50) in assay [1] (setting [9]) is 2.51 ± 0.55 µM. For the same compound, in assay [1] (setting [10]), the IC50 stood at 0.0051 µM.

As to `CO[C@@H]1[C@@H](O[C@@H]2O[C@H](C)[C@@H](O[C@H]3C[C@@](C)(O)[C@@H](OC(=O)CC(C)C)[C@H](C)O3)[C@H](N(C)C)[C@H]2O)[C@@H](CC=O)C[C@@H](C)[C@@H](O)/C=C/C=C/C[C@@H](C)OC(=O)C[C@H]1OC(C)=O` [Josamycin], the “Fold differences, 6 day-assays” value in [1] was 2.3. The IC50 in [1] (setting [11]) was > 18 µM; in assay [1] (setting [12]), 0.388 ± 0.185 µM.

In the case of `CN(C)[C@@H]1C(O)=C(C(=O)NCNCCCC[C@H](N)C(=O)O)C(=O)[C@@]2(O)C(O)=C3C(=O)c4c(O)cccc4[C@@](C)(O)[C@H]3C[C@@H]12` [Lymecycline], the “Fold differences, 6 day-assays” value in assay [1] amounted to 1. Further, the half-inhibitory concentration (IC50) in assay [1] (setting [9]) was > 18 µM; in assay [1] (setting [10]) it was 1.12 ± 0.247 µM.

As for `C=C1c2c(Cl)ccc(O)c2C(=O)C2=C(O)[C@]3(O)C(=O)C(C(N)=O)=C(O)[C@@H](N(C)C)[C@@H]3[C@@H](O)[C@H]12` [Meclocycline], the “Fold differences, 6 day-assays” value in [1] was 0.19. In addition, the half-inhibitory concentration (IC50) is > 18 µM in assay [1] (setting [9]) and 0.292 ± 0.041 µM in assay [1] (setting [10]).

Regarding `C=C1c2cccc(O)c2C(=O)C2=C(O)[C@]3(O)C(=O)C(C(N)=O)=C(O)[C@@H](N(C)C)[C@@H]3[C@@H](O)[C@H]12` [Methacycline], the “Fold differences, 6 day-assays” value in [1] was 1.2. In addition, the IC50 was > 18 µM in assay [1] (setting [11]) and 3.72 µM in assay [1] (setting [12]).

As for `CN(C)c1ccc(O)c2c1C[C@H]1C[C@H]3[C@H](N(C)C)C(O)=C(C(N)=O)C(=O)[C@@]3(O)C(O)=C1C2=O` [Minocycline, Minocycline hydrochloride], in assay [1], the “Fold differences, 3 day-assays” value stood at 3 and the “Fold differences, 6 day-assays” value worked out at 0.56. For the same compound, the concentration for half-maximal inhibition (IC50) in assay [1] (setting [11]) was found to be 9.39 ± 4.35 µM. For the same compound, the IC50 in [1] (setting [12]) was 0.0835 ± 0.025 µM.

Turning to `CO[C@H]1C[C@H](O[C@H]2[C@H](C)[C@@H](O[C@@H]3O[C@H](C)C[C@H](N(C)C)[C@H]3O)[C@@H](C)C[C@@]3(CO3)C(=O)[C@H](C)[C@@H](O)[C@@H](C)[C@@H](C)OC(=O)[C@@H]2C)O[C@@H](C)[C@@H]1O` [Oleandomycin], the values for the IC50 in assay [1] (setting [11]) and in assay [1] (setting [12]) were 8.19 ± 3.85 µM and > 18 µM, respectively.

Regarding `CN(C)c1cc(CNCC(C)(C)C)c(O)c2c1C[C@H]1C[C@H]3[C@H](N(C)C)C(O)=C(C(N)=O)C(=O)[C@@]3(O)C(O)=C1C2=O` [Omadacycline], in [1], the “Fold differences, 3 day-assays” value worked out at 7.3 and the “Fold differences, 6 day-assays” value worked out at 0.86. In addition, the IC50 in assay [1] (setting [11]) was found to be 8.44 ± 0.618 µM. Besides, the IC50 in assay [1] (setting [12]) was found to be 0.248 ± 0.109 µM.

In the case of `CON(C)Cc1ccc(O)c2c1C[C@H]1C[C@H]3[C@H](N(C)C)C(O)=C(C(N)=O)C(=O)[C@@]3(O)C(O)=C1C2=O` [Sarecycline, Sarecycline hydrochloride], in assay [1], the “Fold differences, 3 day-assays” value came to 7.1. The “Fold differences, 6 day-assays” value in assay [1] is 0.26. In addition, the 50% inhibitory concentration (IC50) in assay [1] (setting [9]) amounted to 13.4 ± 1.05 µM; in [1] (setting [10]), 0.244 ± 0.136 µM.

On to `CO[C@H]1C[C@H](O[C@H]2[C@H](C)[C@@H](O[C@@H]3O[C@H](C)C[C@H](N(C)C)[C@H]3OC(C)=O)[C@@H](C)C[C@@]3(CO3)C(=O)[C@H](C)[C@@H](OC(C)=O)[C@@H](C)[C@@H](C)OC(=O)[C@@H]2C)O[C@@H](C)[C@@H]1OC(C)=O` [Troleandomycin], for which the half-maximal inhibitory concentration (IC50) in assay [1] (setting [11]) and in assay [1] (setting [12]) was > 18 µM throughout.

In [5] (setting [13]), `CC[C@H](C)[C@H](NC(=O)[C@H]([C@@H](C)CC)N(C)C(C)=O)C(=O)N[C@H](C(=O)N[C@@H](CC(C)C)C(=O)[C@@]1(C)CO1)[C@@H](C)O` [epoxomicin] yielded an IC50 of 0.0152 ± 0.0034 µM.

On to `CN(C)c1ccc2nc3ccc(=[N+](C)C)cc-3sc2c1` [methylene blue, Methylene Blue], for which inhibition in assay [5] (setting [13]) was half-maximal at 0.284 ± 0.035 µM (IC50).
